In test [1] the test system is cleaved PARP in CaSki cells. Description: Western blot for cleavage of PARP, CaSki. The test is classed as cell-based, human. The conditions noted are these: 24 hours. How it is done: (§1) The effect of Br-ORM on protein expression in cervical cancer cells were determined by Western blot analysis by using specific antibodies.
(§2) It was observed that Br-ORM exerts potent growth inhibitory effects, so the effect of Br-ORM on apoptosis induction was further examined. Cervical cancer cells were treated with Br-ORM (10 μM) for 24 hours and the apoptosis inducing effect of Br-ORM was analyzed by Annexin V staining and Western blot analysis for cleavage in PARP protein.
(§3) FIG. 13. Br-ORM decreases proliferation and colony formation of cervical cancer cells. FIG. 13A. Effect of Br-ORM on cell viability of CaSki cells (i) and SiHa cells (ii). Briefly, cervical cancer cells were seeded (2500) in each well of 96-well plate and after overnight incubation; cells were treated with indicated concentrations of Br-ORM for 24 hours. Cell viability was assessed by MTS assay. […] Bar graphs indicating quantification of colony formation in CaSki (i), and SiHa (ii) cells of cervical cancer with respect to vehicle control. […] Briefly, cervical cancer cells were treated with Br-ORM (10 μM) for 24 hours and the apoptosis inducing effect of Br-ORM was analyzed by Annexin V staining. […] The equal loading of protein in each lane was determined by probing the blots with β-actin antibody (FIG. 13F). […] Br-ORM arrests cell cycle in G1/S phase as determined by flow cytometry. […]
Background: Immunoblotting shows a protein as a band on a membrane.

Test [2] concerns cleaved PARP in SiHa cells. As to the kind of experiment: Western blot for cleavage of PARP, SiHa. The conditions noted are these: 24 hours. The test is classed as cell-based, human. The method, then:
as §1, §2, §3

For test [3], the system named is EMT markers and MMPs in SiHa cells. Description: Western blot for EMT markers and MMPs, SiHa. Type of test: cell-based, human. The settings on record: 24 hours. How it is done: In a further example, cell lysates and western blot analysis was conducted for EMT markers and MMPs. […] In this example, about 70% of confluent SiHa and CaSki were treated with ORM-Br ([…]) for 24 hours. Cell lysates were prepared, and western blot analysis were conducted for EMT markers and MMPs analysis. The effect of ORM-Br on protein levels of cell-cycle regulatory proteins (cyclin E1 and p27) in both CaSki and SiHa cell lines are shown.
as §1
Epithelial mesenchymal transition (EMT) is the basic characteristic of cancer cells in which epithelial cells undergo morphologic and molecular changes that transform the cells to mesenchymal, highly metastatic (invasive and motile), and drug-resistant phenotypes. Thus, targeting EMT may reduce the invasive phenotypes of a cancer cell and have significant advantage to overcome drug resistance. It has been reported that β-catenin is involved in invasion and metastasis via inducing EMT in various tumor cells. The effect of Br-ORM treatment on various EMT markers in cervical cancer cells was evaluated. […] The effect of Br-ORM on expression of EMT markers in cervical cancer cells compared to untreated group by use of qPCR analysis was determined. […] Expression of E-cadherin in cervical cancer cells treated with Br-ORM (10 μM) for 18 hours was also determined by immunofluorescence and confocal microscopy. Images were captured under 60× magnification and representative images are presented (FIG. 14G).
FIG. 14. Br-ORM decreases migration, invasion and attenuates EMT in cervical cancer cells. Effect of Br-ORM on cell migration of cervical cancer cells as determined by agarose bead (FIG. 14A), scratch wound healing (FIG. 14B), and Boyden chamber assay (FIG. 14C). AB denotes agarose bead while MC denotes migratory cells. Arrows indicate the distance of cervical cancer (CaSki and SiHa) cells migration in control and Br-ORM treated groups (FIG. 14A(i)-(ii)). […] Closure of wound was determined and photographed using phase contrast microscopy. […] Bar graph represent the quantification of migrated CaSki cells of control and Br-ORM treated groups (FIG. 14C(ii)). […] Effect of Br-ORM treatment on invasion of CaSki cells as determined by a commercially available kit (BD Biosciences) as described in materials and methods. In brief, 24 hours post-treatment of Br-ORM, invaded cells were fixed, stained and counted. […] Bar graph represent the quantification of invaded CaSki cells of control and Br-ORM treated groups (FIG. 14D(ii)). […] Effect of Br-ORM on E-cadherin expression in cervical cancer cells as determined by confocal microscopy in control and Br-ORM treated cells after 18 hours.

The subject of test [4] is CaSki cells derived xenograft tumors. As to the kind of experiment: Orthotopic xenograft mouse model of cervical cancer. The conditions noted are these: 250 μg/mice intra-tumoral. Type of test: in vivo, female athymic nude mice.
The mark [5] stands for this setting: three times per week, vs control.

These results are taken from patent publication US20240208950A1, “COMPOSITIONS AND METHODS FOR TREATMENT OF CERVICAL AND OVARIAN CANCER” (SOUTH DAKOTA BOARD OF REGENTS, priority 2021, published 2024).

With `COc1ccc2c(c1)OC(C)(C)C(c1ccc(Br)cc1)C2c1ccc(OCCN2CCCC2)cc1` (centres unmarked) [ORM-Br], in test [1], the “protein levels of cleaved PARP” value was “dose dependently enhanced the protein levels of cleaved PARP”. For the same compound, the “protein levels of cleaved PARP” value in test [2] is “dose dependently enhanced the protein levels of cleaved PARP”. Besides, in test [3], the “EMT associated markers (N-cadherin, vimentin and snail) expression” value was “inhibits the EMT associated markers”; the “expression of E-cadherin” value is reported as “induced the expression of E-cadherin”; the “expression of MMP2 and MMP9” value is “inhibited the expression of MMP2 and MMP9”. The “EMT associated markers (N-cadherin, vimentin and snail) expression” value in test [3] (listed as Br-ORM) is listed as “marked inhibition”. For the same compound, in test [4] (setting [5]), the tumor volume result was “significantly (p<0.05) reduced” and the tumor weight entry is given as “significantly (p<0.05) reduced”. In addition, in test [4] (excised tumors), the “expression of E-cadherin in xenograft tumors (IHC)” value is “increase in the expression of E-cadherin”; the “expression of miR-200a in excised xenograft tumors (in situ hybridization)” value is recorded as “Increased expression of miR-200a”; the “expression of β-catenin, vimentin, snail, slug, HPV-E6, HPV-E7, and PCNA in xenograft tumors (IHC)” value is recorded as “significant downregulation”.
